Experimental data reported in patent US6071932A, “Carbazolypiperines as GABA uptake inhibitors” (British Technology Group Intercorporate Licensing Limited, priority 1995, dated 2000).
Where a name gives a salt, the structure may show the parent alone.

biological target: T1, GABA uptake carrier (Rattus norvegicus, UniProt P31647); assay: 3H-GABA uptake in crude brain membrane preparation in presence of NNC 05-0711; type: biochemical; details: NNC 05-0711 1 mM, 0.9 nM 3H-GABA + 25 nM GABA, pH 7.5, 30° C., 8 min, read-out: IC50 (nM) in vitro, Non-GABA uptake carrier mediated uptake of 3H-GABA
T1 construct: A crude membrane preparation was prepared from selected brain areas; from tissue; host or cells: crude membrane (synaptosomal) preparation from selected brain areas
T1 sequence (P31647 1-627): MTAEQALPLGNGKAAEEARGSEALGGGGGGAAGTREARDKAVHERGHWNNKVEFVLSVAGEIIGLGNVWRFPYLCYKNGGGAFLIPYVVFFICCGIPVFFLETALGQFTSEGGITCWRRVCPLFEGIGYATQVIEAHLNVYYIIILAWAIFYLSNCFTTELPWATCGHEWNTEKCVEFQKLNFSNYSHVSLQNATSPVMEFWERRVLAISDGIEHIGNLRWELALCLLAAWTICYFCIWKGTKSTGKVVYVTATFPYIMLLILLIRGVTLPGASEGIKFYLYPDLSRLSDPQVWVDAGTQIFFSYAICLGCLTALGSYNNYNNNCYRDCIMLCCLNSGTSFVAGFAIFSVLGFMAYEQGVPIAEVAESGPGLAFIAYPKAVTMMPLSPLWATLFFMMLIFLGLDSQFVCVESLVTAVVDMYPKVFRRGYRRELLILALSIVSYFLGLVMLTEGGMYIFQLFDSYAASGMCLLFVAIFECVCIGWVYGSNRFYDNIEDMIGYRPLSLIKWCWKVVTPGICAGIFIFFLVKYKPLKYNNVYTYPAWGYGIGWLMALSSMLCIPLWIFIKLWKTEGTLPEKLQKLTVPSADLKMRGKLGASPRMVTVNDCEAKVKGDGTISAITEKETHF
Protocol: ^3 H-GABA uptake was measured by a modification of the method of Fjalland et al., (1978). A crude membrane preparation was prepared from selected brain areas by homogenization in 20 ml of ice-cold 0.32 M sucrose with a hand driven teflon/glass Potter-Elvehjem homogenizer. The homogenate was centrifuged at 4° C. for 10 min. at 1.000×g, and the pellet was discarded. The supernatant was recentrifuged at 4° C. for 20 min. at 20.000×g. The pellet was then homogenized in 50 volumes 0.32 M sucrose. To 300 μl uptake-buffer ([…], 15.3 mM KCl, 6.67 mM MgSO4, 3.83 mM CaCl2, 16.67 mM glucose, 66.67 mM Tris, pH 7.5 at 30° C.) was added 1-(2-(((diphenylmethylene)amino)oxy)ethyl)-1,2,5,6-tetrahydro-3-pyridinecarboxylic acid (NNC 05-0711) (1 mM final concentration), 100 μl test substance and 50 μl tissue suspension. The samples were mixed and incubated at 30° C. for 8 min. Then ^3 H-GABA (0.9 nM final concentration) and unlabelled GABA (25 nM final concentration) was added, and the incubation was continued for an additional 8 min. The reaction was terminated by rapid filtration through Whatman GF/F glass fiber filters under vacuum. The filters were then washed twice in 10 ml of ice-cold isotonic saline, and the tritium trapped on the filters was quantified by conventional scintillation spectroscopy. Non-GABA uptake carrier mediated uptake of ^3 H-GABA was determined in the presence of […].

Row | SMILES | IC50 [nM]
1 | C[C@@H](CN1CCC(O)(c2ccccc2)CC1)Cn1c2ccccc2c2ccccc21 [Compound 11, (S)-1-((3-(9H-Carbazol-9-yl)-2-methyl)-1-propyl)-4-ph-enylpiperidin-4-ol hydrochloride] | 1480
2 | CCc1ccc2c(c1)c1ccccc1n2CCCN1CCC(O)(c2ccccc2)CC1 [Compound 16, 1-(3-(3-Ethyl-9H-carbazol-9-yl)-1-propyl)-4-phenylpiperidin-4-ol] | 1700
3 | CC(Cl)CC(=O)n1c2ccccc2c2ccccc21 (stereo not drawn) [Compound 23, 1-(9H-Carbazol-9-yl)-3-chlorobutan-1-one] | 3100
4 | C[C@H](CN1CCC(O)(c2ccccc2)CC1)Cn1c2ccccc2c2ccccc21 [Compound 13, (R)-1-((3-(9H-Carbazol-9-yl)-2-methyl)-1-propyl)-4-phenylpiperidin-4-ol hydrochloride] | 7860

system: GABA uptake; assay: not given; details: oral; Yunger, L. M. et al. 1984; cited from earlier work

Row | SMILES | orally active inhibition of GABA uptake
5 | O=C(O)C1CCCN(CCC=C(c2ccccc2)c2cccs2)C1 (stereo not drawn) [SK&F 100604J, N-(4-phenyl-4-(2-thienyl)-3-buten-1-yl)nipecotic acid] | orally active inhibitors of GABA uptake
6 | O=C(O)CC1CCN(CCC=C(c2ccccc2)c2ccccc2)C1 (stereo not drawn) [SK&F 100561, N-(4,4-diphenyl-3-buten-1-yl)-homo-β-proline] | orally active inhibitors of GABA uptake
7 | O=C(O)C1CCCN(CCC=C(c2ccccc2)c2ccccc2)C1 (stereo not drawn) [SK&F 89976A, N-(4,4-diphenyl-3-buten-1-yl)nipecotic acid] | orally active inhibitors of GABA uptake
8 | O=C(O)C1=CCCN(CCC=C(c2ccccc2)c2ccccc2)C1 [SK&F 100330A, N-(4,4-diphenyl-3-buten-1-yl)guvacine] | orally active inhibitors of GABA uptake

system: GABA uptake; assay: not given; details: cited from earlier work

Row | SMILES | inhibition of GABA uptake from the synaptic cleft into presynaptic nerve terminals and glial cells
9 | O=C(O)C1CCCNC1 (stereo not drawn) [nipecotic acid, 3-piperidinecarboxylic acid] | well-known and potent inhibitor
